Structures are written as SMILES.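 In this assay, cells in 96-well plates receive the compound at five concentrations for 48 hours. Endpoints are linearly interpolated between the surrounding concentrations. The concentration for 50% growth inhibition is given as GI50.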 Active and inactive are the calls of the source. No stated cut-off is given here; in the data, active = GI50 up to about 1.1 µM and inactive = higher. Bounds are passed on as bounds.

The record followed here is ChEMBL document CHEMBL1201862, “PubChem BioAssay data set” (2004).

Among the test systems are Malme-3M; OVCAR-5; HCT-116; NCI-H23; SF-268; NCI-H226; HCT-15; U-251; CAKI-1; K562; HOP-62; RPMI-8226; ACHN; 786-0; NCI-H522; SK-MEL-5; OVCAR-3; COLO 205; UO-31; NCI/ADR-RES.
Common to all, as to assay: DTP human tumour cell line panel, 48 h

By GI50 is commonly meant the concentration that inhibits growth by half. Regarding `CCOC(=O)c1cn(CC)c2ccc3ccsc3c2c1=O`, the GI50 in the test with Malme-3M, in the test with OVCAR-5, with HCT-116, in the test with NCI-H23, in the test with SF-268 and with NCI-H226 was > 100 µM (inactive) throughout. Also, the GI50 with HCT-15 was over 100 µM; with U-251, 5.46 µM (inactive); in the test on CAKI-1, > 100 µM (inactive); with K562, > 100 µM (inactive); in the test on HOP-62, > 100 µM (inactive); in the test with RPMI-8226, > 100 µM (inactive). Further, the GI50 in the test on ACHN, in the test with 786-0, in the test with NCI-H522, in the test with SK-MEL-5, with OVCAR-3 and with COLO 205 was > 100 µM (inactive) in each case. In addition, the GI50 in the test on UO-31 and in the test on NCI/ADR-RES was > 100 µM (inactive) each time.
For the molecule `COC(=O)Cc1c2n(c3ccccc13)C(=O)N1c3ccccc3C(CC(=O)OC)C21` (stereo not given), the GI50 in the test with Malme-3M is 81.3 µM (inactive); in the test on OVCAR-5 it was 32.9 µM (inactive); in the test with HCT-116, 23 µM (inactive); in the test on NCI-H23 it was 15.7 µM (inactive); with SF-268, 39.5 µM (inactive); with NCI-H226, > 100 µM (inactive). Also, the GI50 is 69 µM in the test on HCT-15; 28.3 µM (inactive) with U-251; 21.1 µM (inactive) with CAKI-1; > 100 µM (inactive) in the test on K562; 17.4 µM (inactive) in the test on HOP-62; > 100 µM (inactive) in the test with RPMI-8226. The GI50 in the test with ACHN is 24.4 µM (inactive); in the test on 786-0, 13.1 µM (inactive); with NCI-H522 it was 62.1 µM (inactive); with SK-MEL-5, 56.2 µM (inactive); in the test on OVCAR-3 it was 55.7 µM (inactive); in the test on COLO 205 it was 87.3 µM (inactive). Further, the GI50 in the test with UO-31 is 54.5 µM (inactive); in the test on NCI/ADR-RES, 53.1 µM (inactive).
For `CC(=O)[C@@]1(O)CC[C@H]2[C@@H]3C[C@H](C)C4=CC(=O)CC[C@]4(C)[C@H]3[C@@H](O)C[C@@]21C`, the GI50 in the test with Malme-3M, in the test on OVCAR-5, in the test on HCT-116, in the test with NCI-H23, in the test on SF-268 and in the test on NCI-H226 was > 100 µM (inactive) each time. Moreover, the GI50 is over 100 µM with HCT-15; > 100 µM (inactive) in the test on U-251; > 100 µM (inactive) in the test with CAKI-1; > 100 µM (inactive) in the test on K562; > 100 µM (inactive) with HOP-62; < 0.01 µM (active) with RPMI-8226. Besides, the GI50 was > 100 µM (inactive) in the test on ACHN; > 100 µM (inactive) in the test with 786-0; 73.6 µM (inactive) with NCI-H522; > 100 µM (inactive) in the test on SK-MEL-5; > 100 µM (inactive) in the test with OVCAR-3; > 100 µM (inactive) in the test with COLO 205. Moreover, the GI50 in the test on UO-31 and in the test with NCI/ADR-RES was > 100 µM (inactive) in each case.
Consider `Cc1ncc([N+](=O)[O-])n1CCNS(=O)(=O)CCCn1ccnc1[N+](=O)[O-]`, for which the GI50 in the test on Malme-3M, in the test on OVCAR-5, in the test with HCT-116, in the test with NCI-H23, with SF-268 and in the test with NCI-H226 was > 100 µM (inactive) in each case. In addition, the 50% growth inhibitory concentration (GI50) with HCT-15 was over 100 µM; in the test with U-251, > 100 µM (inactive); in the test on CAKI-1, > 100 µM (inactive); in the test with K562, > 100 µM (inactive); with HOP-62, > 100 µM (inactive); in the test on RPMI-8226 it was > 100 µM (inactive). In addition, the GI50 with ACHN, with 786-0, in the test with NCI-H522, in the test with SK-MEL-5, with OVCAR-3 and in the test with COLO 205 was > 100 µM (inactive) each time. The GI50 in the test with UO-31 and with NCI/ADR-RES was > 100 µM (inactive) each time.
Turning to `O=C(Nc1nc2ccccc2s1)c1cc([N+](=O)[O-])ccc1Cl`, the GI50 in the test with Malme-3M is 23.7 µM (inactive); with OVCAR-5 it was 23 µM (inactive); in the test with HCT-116, 3.87 µM (inactive); in the test on NCI-H23, 4.91 µM (inactive); in the test with SF-268, 4.45 µM (inactive); in the test with NCI-H226 it was 16.9 µM (inactive). For the same molecule, the GI50 with HCT-15 was 4.63 µM; with U-251, 6.43 µM (inactive); in the test with CAKI-1, 37.6 µM (inactive); with K562, 3.86 µM (inactive); in the test with HOP-62 it was 13.6 µM (inactive); with RPMI-8226, 4.81 µM (inactive). Besides, the GI50 with ACHN was 17 µM (inactive); in the test with 786-0, 11.1 µM (inactive); with NCI-H522, 3.4 µM (inactive); in the test on SK-MEL-5, 7.6 µM (inactive); in the test with OVCAR-3 it was 16.7 µM (inactive); with COLO 205, 19.6 µM (inactive). In addition, the GI50 in the test on UO-31 is 6.76 µM (inactive); in the test with NCI/ADR-RES it was 6.89 µM (inactive).
`C1CSC(Sc2nc(SC3=NCCS3)nc(SC3=NCCS3)n2)=N1`: the GI50 in the test with Malme-3M, with OVCAR-5, with HCT-116, with NCI-H23, with SF-268 and in the test on NCI-H226 was > 100 µM (inactive) in each case. In addition, the 50% growth inhibitory concentration (GI50) in the test with HCT-15 was over 100 µM; in the test on U-251, > 100 µM (inactive); with CAKI-1, > 100 µM (inactive); with K562 it was > 100 µM (inactive); with HOP-62 it was > 100 µM (inactive); in the test on RPMI-8226 it was > 100 µM (inactive). The GI50 with ACHN was > 100 µM (inactive); in the test with 786-0 it was > 100 µM (inactive); in the test with NCI-H522, 35.5 µM (inactive); in the test with SK-MEL-5, > 100 µM (inactive); with OVCAR-3, > 100 µM (inactive); with COLO 205, > 100 µM (inactive). Also, the GI50 with UO-31 and with NCI/ADR-RES was > 100 µM (inactive) in each case.
Consider `CN(C)c1n2c3cc([N+](=O)[O-])ccc3[n+]3c(N(C)C)n4ccccc4c3c2c2cccc[n+]12.[O-][Cl+3]([O-])([O-])[O-].[O-][Cl+3]([O-])([O-])[O-]`, for which the GI50 in the test with Malme-3M was > 100 µM (inactive); in the test with OVCAR-5, > 100 µM (inactive); in the test on HCT-116, > 100 µM (inactive); with NCI-H23, > 100 µM (inactive); in the test on SF-268 it was 29.7 µM (inactive); with NCI-H226, > 100 µM (inactive). Also, the GI50 with HCT-15 is over 100 µM; in the test on U-251, 51.1 µM (inactive); with CAKI-1, > 100 µM (inactive); with K562, > 100 µM (inactive); with HOP-62, > 100 µM (inactive); in the test on RPMI-8226, > 100 µM (inactive). Further, the GI50 was > 100 µM (inactive) in the test with ACHN; > 100 µM (inactive) in the test on 786-0; 34.9 µM (inactive) in the test on NCI-H522; > 100 µM (inactive) in the test with SK-MEL-5; > 100 µM (inactive) with OVCAR-3; > 100 µM (inactive) in the test on COLO 205. The GI50 with UO-31 and with NCI/ADR-RES was > 100 µM (inactive) in each case.
As to `CCOC(=O)NC(NC(C)CC)(C(F)(F)F)C(F)(F)F` (stereo not given), the GI50 with Malme-3M, in the test with OVCAR-5, in the test with HCT-116, in the test on NCI-H23, with SF-268 and in the test with NCI-H226 was > 100 µM (inactive) throughout. Also, the GI50 with HCT-15 was over 100 µM; in the test with U-251 it was 81.5 µM (inactive); in the test on CAKI-1, > 100 µM (inactive); in the test on K562 it was > 100 µM (inactive); in the test with HOP-62, > 100 µM (inactive); in the test on RPMI-8226, > 100 µM (inactive). Further, the GI50 with ACHN, in the test with 786-0, in the test with NCI-H522, in the test with SK-MEL-5, in the test on OVCAR-3 and in the test with COLO 205 was > 100 µM (inactive) throughout. In addition, the GI50 with UO-31 and with NCI/ADR-RES was > 100 µM (inactive) in each case.
For the molecule `CC1=NNC(=S)NCCCN2CCN(CCCNC(=S)NN=C(C)C=NNC(=S)NCCCN3CCN(CCCNC(=S)NN=C1)CC3)CC2`, the GI50 in the test with Malme-3M, in the test with OVCAR-5, in the test on HCT-116, in the test with NCI-H23, with SF-268 and in the test with NCI-H226 was > 100 µM (inactive) each time. In addition, the GI50 is over 100 µM in the test on HCT-15; > 100 µM (inactive) with U-251; > 100 µM (inactive) in the test with CAKI-1; > 100 µM (inactive) in the test with K562; > 100 µM (inactive) with HOP-62; > 100 µM (inactive) in the test with RPMI-8226. Also, the GI50 in the test on ACHN, with 786-0, in the test on NCI-H522, with SK-MEL-5, in the test with OVCAR-3 and in the test on COLO 205 was > 100 µM (inactive) each time. The GI50 in the test with UO-31 and in the test with NCI/ADR-RES was > 100 µM (inactive) in each case.
In the case of `Cc1cc(S(=O)(=O)Nc2nc(Nc3ccc(Cl)cc3)n[nH]2)c(S)cc1Cl`, the GI50 was > 100 µM (inactive) in the test on Malme-3M; > 100 µM (inactive) in the test on OVCAR-5; > 100 µM (inactive) with HCT-116; 82.8 µM (inactive) in the test on NCI-H23; 75.5 µM (inactive) with SF-268; > 100 µM (inactive) with NCI-H226. Also, the GI50 is 4.53 µM in the test with HCT-15; 27.9 µM (inactive) in the test on U-251; 36 µM (inactive) in the test with CAKI-1; > 100 µM (inactive) in the test with K562; 52.5 µM (inactive) in the test with HOP-62; > 100 µM (inactive) in the test with RPMI-8226. Also, the GI50 was 37.9 µM (inactive) in the test with ACHN; > 100 µM (inactive) in the test with 786-0; 70.5 µM (inactive) in the test with NCI-H522; > 100 µM (inactive) with SK-MEL-5; > 100 µM (inactive) with OVCAR-3; 79.3 µM (inactive) in the test with COLO 205. The GI50 with UO-31 is 79.1 µM (inactive); in the test with NCI/ADR-RES, > 100 µM (inactive).
